A short description of assay [1]: Inhibition of NS5A in HuH7 cell infected HCV genotype 1b Con1 assessed as decrease in viral replication after 3 days by luciferase reporter gene assay. For orientation: Reporter assays use an easily measured gene product as a stand-in for the process of interest.
Assay [2] in a line: Inhibition of NS5A in HuH7 cell infected HCV genotype 1a H77 assessed as decrease in viral replication after 3 days by luciferase reporter gene assay.
Assay [3] can be described thus: Inhibition of HCV genotype 1b Con1 NS5A expressed in HuH7 cell infected HCV genotype 2a assessed as decrease in viral replication after 3 days by luciferase reporter gene assay.
A short description of assay [4]: Inhibition of HCV genotype 1b Con1 NS5A expressed in HuH7 cell infected HCV genotype 4a assessed as decrease in viral replication after 3 days by luciferase reporter gene assay.
Assay [5] in a line: Inhibition of HCV genotype 1b Con1 NS5A expressed in HuH7 cell infected HCV genotype 3a assessed as decrease in viral replication after 3 days by luciferase reporter gene assay.
Assay [6] in a line: Inhibition of NS5A in HuH7 cell infected HCV genotype 1a H77 assessed as decrease in viral replication after 3 days in presence of 40% human plasma by luciferase reporter gene assay.
A short description of assay [7]: Inhibition of HCV genotype 1b Con1 NS5A expressed in HuH7 cell infected HCV genotype 2b assessed as decrease in viral replication after 3 days by luciferase reporter gene assay.
Assay [8] can be described thus: Inhibition of NS5A in HuH7 cell infected HCV genotype 1b Con1 assessed as decrease in viral replication after 3 days in presence of 40% human plasma by luciferase reporter gene assay.
Assay [9] is described as follows: Inhibition of HCV genotype 1b Con1 NS5A expressed in HuH7 cell infected HCV genotype 6a assessed as decrease in viral replication after 3 days by luciferase reporter gene assay.

Each structure is given as a SMILES string.

`COC(=O)N[C@H](C(=O)N1CCC[C@H]1c1nc2ccc([C@H]3CC[C@H](c4ccc5nc([C@@H]6CCCN6C(=O)[C@@H](NC(=O)OC)C(C)C)[nH]c5c4)N3c3ccc(OC(F)(F)F)cc3)cc2[nH]1)C(C)C`: the 50% effective concentration (EC50) – broadly, the concentration at which the effect is half-maximal – in assay [1] came to 0.012 nM; in [2] it was 0.019 nM; in [3] it was 0.043 nM; in [4], 0.013 nM; in assay [5], 0.018 nM; in assay [6] it was 0.276 nM. The EC50 in assay [7] stood at 0.012 nM; in assay [8], 0.23 nM.
As to `COC(=O)N[C@H](C(=O)N1CCC[C@H]1c1nc2ccc([C@H]3CC[C@H](c4ccc5nc([C@@H]6CCCN6C(=O)[C@@H](NC(=O)OC)C(C)C)[nH]c5c4)N3c3ccc(C4CC4)cc3)cc2[nH]1)C(C)C`, the concentration giving a half-maximal response (EC50) in assay [1] was 0.023 nM; in assay [2], 0.012 nM; in assay [3] it was 0.041 nM; in assay [4] it was 0.02 nM; in assay [5], 0.026 nM; in assay [6], 0.161 nM. In addition, the EC50 in [7] worked out at 0.02 nM; in assay [8], 0.354 nM.
With `COC(=O)N[C@H](C(=O)N1CCC[C@H]1c1nc2ccc([C@H]3CC[C@H](c4ccc5nc([C@@H]6CCCN6C(=O)[C@@H](NC(=O)OC)C(C)C)[nH]c5c4)N3c3ccc(Oc4ccccc4)cc3)cc2[nH]1)C(C)C`, the EC50 was 0.02 nM in assay [1]; 0.012 nM in [2]; 0.012 nM in assay [3]; 0.005 nM in [4]; 0.011 nM in [5]; 0.155 nM in assay [6]. Also, the EC50 in [7] was 0.008 nM; in assay [8], 0.279 nM.
For `COC(=O)N[C@H](C(=O)N1CCC[C@H]1c1nc2ccc([C@H]3CC[C@H](c4ccc5nc([C@@H]6CCCN6C(=O)[C@@H](NC(=O)OC)C(C)C)[nH]c5c4)N3c3ccc(N4CCOCC4)cc3)cc2[nH]1)C(C)C`, the EC50 in assay [1] is 0.382 nM; in [2] it was 0.379 nM; in [3], 0.598 nM; in assay [4] it was 0.316 nM; in assay [5], 1.2 nM; in assay [6] it was 0.902 nM. In addition, the EC50 in assay [7] is 0.96 nM; in assay [8] it was 2.07 nM.
As for `COC(=O)N[C@H](C(=O)N1CCC[C@H]1c1nc2ccc([C@H]3CC[C@H](c4ccc5nc([C@@H]6CCCN6C(=O)[C@@H](NC(=O)OC)C(C)C)[nH]c5c4)N3c3cc(Cl)c(N4CCCCC4)c(Cl)c3)cc2[nH]1)C(C)C`, the EC50 in [1] turned out to be 0.003 nM; in [2], 0.005 nM; in [3] it was 0.044 nM; in assay [4] it was 0.006 nM; in assay [5] it was 0.011 nM; in assay [6] it was 0.213 nM. Also, the concentration for a half-maximal effect (EC50) in assay [7] came to 0.005 nM; in [9] it was 0.01 nM; in [8], 0.132 nM.
Regarding `COC(=O)N[C@H](C(=O)N1CCC[C@H]1c1nc2ccc([C@H]3CC[C@H](c4ccc5nc([C@@H]6CCCN6C(=O)[C@@H](NC(=O)OC)C(C)C)[nH]c5c4)N3c3ccc(C(C)(C)C)cc3)cc2[nH]1)C(C)C`, the EC50 in [1] stood at 0.013 nM; in assay [2], 0.009 nM; in assay [3] it was 0.152 nM; in [4], 0.006 nM; in assay [5], 0.006 nM; in assay [6], 0.148 nM. Also, the 50% effective concentration (EC50) in [7] worked out at 0.01 nM; in assay [8], 0.268 nM.
`COC(=O)N[C@H](C(=O)N1CCC[C@H]1c1nc2ccc([C@H]3CC[C@H](c4ccc5nc([C@@H]6CCCN6C(=O)[C@@H](NC(=O)OC)C(C)C)[nH]c5c4)N3c3ccc(N4CCOCC4)c(F)c3)cc2[nH]1)C(C)C`: the EC50 in [1] worked out at 0.196 nM; in assay [2] it was 0.189 nM; in assay [3], 0.307 nM; in [4], 0.17 nM; in [5], 0.355 nM; in assay [6], 0.474 nM. Besides, the concentration for a half-maximal effect (EC50) in [7] was 0.229 nM; in [8], 0.915 nM.
Consider `COC(=O)N[C@H](C(=O)N1CCC[C@H]1c1nc2ccc([C@H]3CC[C@H](c4ccc5nc([C@@H]6CCCN6C(=O)[C@@H](NC(=O)OC)C(C)C)[nH]c5c4)N3c3ccc(N4CCC(c5ccccc5)CC4)cc3)cc2[nH]1)C(C)C`, for which the EC50 in [1] worked out at 0.325 nM; in assay [2], 0.324 nM; in [3], 0.468 nM; in assay [4] it was 0.243 nM; in [5], 0.481 nM; in [6], 1.51 nM. Moreover, the results for the EC50 in [7], in assay [9] and in assay [8] were 0.452 nM, 0.402 nM and 1.51 nM, respectively.
Take `COC(=O)N[C@H](C(=O)N1CCC[C@H]1c1nc2ccc([C@H]3CC[C@H](c4ccc5nc([C@@H]6CCCN6C(=O)[C@@H](NC(=O)OC)C(C)C)[nH]c5c4)N3c3ccc(-c4ccccc4)cc3)cc2[nH]1)C(C)C`: the concentration for a half-maximal effect (EC50) in assay [1] is 0.003 nM; in [2] it was 0.004 nM; in [3], 0.011 nM; in assay [4], 0.006 nM; in [5], 0.016 nM; in assay [6], 0.075 nM. Further, the EC50 in assay [7] stood at 0.009 nM; in [9], 0.011 nM; in [8], 0.108 nM.
Consider `COC(=O)N[C@H](C(=O)N1CCC[C@H]1c1nc2ccc([C@H]3CC[C@H](c4ccc5nc([C@@H]6CCCN6C(=O)[C@@H](NC(=O)OC)C(C)C)[nH]c5c4)N3c3ccc(C4CCCCC4)cc3)cc2[nH]1)C(C)C`, for which the EC50 was 0.009 nM in assay [1]; 0.004 nM in [2]; 0.01 nM in assay [3]; 0.009 nM in assay [4]; 0.008 nM in assay [5]; 0.107 nM in assay [6]. Further, the figures for the EC50 in assay [7] and in assay [8] were 0.007 nM and 0.178 nM, respectively.
With `COC(=O)N[C@H](C(=O)N1CCC[C@H]1c1nc2ccc([C@H]3CC[C@H](c4ccc5nc([C@@H]6CCCN6C(=O)[C@@H](NC(=O)OC)C(C)C)[nH]c5c4)N3c3ccc(N4CCCCC4)c(F)c3)cc2[nH]1)C(C)C`, the concentration for a half-maximal effect (EC50) in [1] came to 0.029 nM; in assay [2], 0.018 nM; in assay [3] it was 0.048 nM; in [4] it was 0.017 nM; in [5], 0.044 nM; in assay [6], 0.199 nM. For the same compound, the EC50 stood at 0.03 nM in assay [7] and 0.383 nM in assay [8].
Turning to `COC(=O)N[C@H](C(=O)N1CCC[C@H]1c1nc2ccc([C@H]3CC[C@H](c4ccc5nc([C@@H]6CCCN6C(=O)[C@@H](NC(=O)OC)C(C)C)[nH]c5c4)N3c3cc(F)c(N4CCC(c5ccc(F)cc5)CC4)c(F)c3)cc2[nH]1)C(C)C`, the concentration for a half-maximal effect (EC50) in assay [1] stood at 0.008 nM; in [2], 0.003 nM; in [3], 0.02 nM; in assay [4], 0.009 nM; in assay [5] it was 0.013 nM; in assay [6] it was 0.078 nM. Besides, the concentration for a half-maximal effect (EC50) is 0.013 nM in [7], 0.021 nM in [9] and 0.126 nM in [8].
Turning to `COC(=O)N[C@H](C(=O)N1CCC[C@H]1C(=O)Nc1ccc([C@H]2CC[C@H](c3ccc(NC(=O)[C@@H]4CCCN4C(=O)[C@@H](NC(=O)OC)C(C)C)cc3)N2c2ccc(C(C)(C)C)cc2)cc1)C(C)C`, the EC50 in assay [1] was determined as 0.009 nM; in [2], 0.136 nM; in assay [6], 0.986 nM; in assay [8] it was 0.09 nM.
As for `COC(=O)N[C@H](C(=O)N1CCC[C@H]1c1nc2ccc([C@@H]3CC[C@@H](c4ccc5nc([C@@H]6CCCN6C(=O)[C@@H](NC(=O)OC)C(C)C)[nH]c5c4)N3c3ccc(C(C)(C)C)cc3)cc2[nH]1)C(C)C`, the EC50 in assay [1] was determined as 0.013 nM; in assay [2] it was 0.071 nM; in assay [6], 1.98 nM; in assay [8], 0.354 nM.

The record behind these values is BindingDB's records for doi:10.1021/acs.jmedchem.8b00082 (Abbvie, 2018).
